Consider one compound from patent US20090311237A1, “Combination therapy using a soluble hyaluronidase and a bisphosphonate” (priority 2008, published 2009).

Read-outs that look alike come from different tables or passages of the source.

Data set [1] relates to Sprague Dawley rats. In words: Semi-quantitative histopathology of skin at injection site after ID zoledronic acid with or without rHuPH20. More on the design: key: —: Dash indicates no incidence of indicated finding. The format is in vivo. The settings on record: rat ID, 4 days. Here is the method: Nine to ten week old female Sprague Dawley rats, having approximate body weight of 200-250 grams, were employed for the study. One day prior to injection, rats were shaved and hair on the back and flank area were removed by Nair® cream (exposure less than 1 min to depilation cream) followed by deep wash with warm tap water. On the day of dosing, all rats were injected intradermally in flank area (one or two injection spots per side), with 0.1 or 0.2 mL as indicated of zoledronic acid solution, with or without rHuPH20, at each corresponding concentration as shown in study design table. Injection site appearance was observed and quantified by blind assessment each day following the injection until the end of the study, at which time animals were sacrificed and the skin around the dosing area as well as a part of the skin that was not effected by the dosing were collected and fixed in 10% neutral buffered formalin (NBF) and further embedded in paraffin, 5 μm sections were cut for H&E stain and histopathology evaluation.
Lesion area was calculated by the following formula: W×L×¼π. Quantitative results were analyzed using one-way analysis of variance (ANOVA) method, followed by Dunnett's comparison method (Prizm 4 program). […] Histopathologic findings were characterized by semi-quantitative analysis of necrosis and infiltration in the skin tissue. […]

Data set [2] relates to Sprague Dawley rats. In words: Injection site reaction recovery study (10 days) after ID ZA with or without rHuPH20. Format: in vivo, rat. As for the experimental part:
Sprague Dawley rats were randomized to three groups of 4 rats each. ZA (0.1 ml at 0.1 mg/mL), either alone or supplemented with either 130 U/mL or 100,000 U/mL rHuPH20, was given via intradermal injection. Injection sites were observed and measured daily. Animals were sacrificed at 10 days post-injection and skin from lesion areas were dissected, fixed in 10% buffered formalin, embedded in paraffin and stained with H&E.

The conditions of data set [3]: cited from earlier work; for IV MRT: IV […] infusion, calculated from published ZA PK data.

On to `O=P(O)(O)C(O)(Cn1ccnc1)P(=O)(O)O` [ZA, 1-hydroxy-2-(1H-imidazol-1-yl)ethylidene-1,1-bisphosphonic acid], for which the “Necrosis: Superficial dermis” value in the data set on Sprague Dawley rats [1] (ZA alone 0.05 mg/mL) and in the data set on Sprague Dawley rats [1] (ZA alone 0.1 mg/mL) was “—” in each case. In addition, the “time to peak lesion area” value in the data set with Sprague Dawley rats [2] (rat ID 0.1 ml, ZA 0.1 mg/mL alone or with 130 or 100,000 U/mL rHuPH20) is reported as 3 days. Besides, the histopathologic findings result in the data set with Sprague Dawley rats [2] (rat ID, ZA 0.1 mg/mL alone, 10 days post-injection) is “scabbing, epidermal necrosis, infiltration, vessel dilation and hemorrhage”. Besides, the “IV MRT” value in data set [3] (adjusted to match SC dose 0.25 mg) is given as 1.9010 h; in data set [3] (adjusted to match SC dose 0.5 mg), 2.2330 h; in data set [3] (adjusted to match SC dose 1 mg), 5.2494 h; in data set [3] (adjusted to match SC dose 5 mg), 9.1957 h. In addition, in data set [3] (man, IV), the “terminal γ phase half-life (T½γ)” value is ~146 h.
